Here are results for five compounds from ChEMBL document CHEMBL3046182, “Development of a rapid resistance monitoring bioassay for codling moth larvae” (2012).

Structures are written as SMILES. In brackets after ≈: the same amount, converted by molar mass.

Format in all cases: functional
Test [1] concerns Cydia pomonella. Briefly: Insecticidal activity against po dosed fourth-instar larvae of Cydia pomonella (codling moth) lab-s measured after 4 days.
In test [2] the test system is Cydia pomonella. Briefly: Insecticidal activity against po dosed Cydia pomonella (codling moth) lab-s neonate measured after 4 days.
The test system of test [3] is Cydia pomonella. Description: Insecticidal activity against fourth-instar larvae of Cydia pomonella (codling moth) lab-s compound applied topically measured after 4 days. To be noted: topical, 96 h.
For test [4], the system named is Cydia pomonella. Description: Insecticidal activity against Cydia pomonella (codling moth) lab-s neonate compound applied topically measured after 4 days. The conditions noted are these: topical, 96 h.
Test [5] deals with Cydia pomonella. Description: Insecticidal activity against po dosed 10 day-old larvae of Cydia pomonella (codling moth) lab-s reared on apple assessed as mortality measured after 4 days.
The subject of test [6] is Cydia pomonella. Description: Insecticidal activity against po dosed 10 day-old larvae of Cydia pomonella (codling moth) Owensby reared on apple assessed as mortality measured after 4 days.
Test [7] deals with Cydia pomonella. Description: Insecticidal activity against po dosed fourth-instar larvae of Cydia pomonella (codling moth) Holt measured after 4 days.
In test [8] the test system is Cydia pomonella. Briefly: Resistant ratio of LC50 for Cydia pomonella (codling moth) Holt neonate to Cydia pomonella (codling moth) Glibert neonate.
In test [9] the test system is Cydia pomonella. Briefly: Resistant ratio of LC50 for fourth-instar larvae of Cydia pomonella (codling moth) Holt to fourth-instar larvae of Cydia pomonella (codling moth) Glibert.
The subject of test [10] is Cydia pomonella. Description: Insecticidal activity against po dosed Cydia pomonella (codling moth) Gilbert neonate measured after 4 days.
In test [11] the test system is Cydia pomonella. Description: Resistant ratio of LC50 for Cydia pomonella (codling moth) lab-s neonate to Cydia pomonella (codling moth) Glibert neonate.
For test [12], the system named is Cydia pomonella. Briefly: Insecticidal activity against po dosed 20 day-old larvae of Cydia pomonella (codling moth) reared on apple assessed as mortality measured after 4 days.
In test [13] the test system is Cydia pomonella. Briefly: Insecticidal activity against po dosed 10 day-old larvae of Chlorantraniliprole-selected Cydia pomonella (codling moth) reared on apple assessed as mortality measured after 4 days.
The subject of test [14] is Cydia pomonella. Description: Insecticidal activity against po dosed 15 day-old larvae of Cydia pomonella (codling moth) reared on apple assessed as mortality measured after 4 days.
Test [15] deals with Cydia pomonella. Description: Insecticidal activity against po dosed fourth-instar larvae of Cydia pomonella (codling moth) Clear Creek abandoned measured after 4 days.
The subject of test [16] is Cydia pomonella. Description: Insecticidal activity against po dosed 10 day-old larvae of Cydia pomonella (codling moth) lab-s measured after 4 days.
Test [17] concerns Cydia pomonella. Description: Insecticidal activity against po dosed 11 day-old larvae of spinetoram-selected Cydia pomonella (codling moth) reared on apple assessed as mortality measured after 4 days.
Test [18] deals with Cydia pomonella. Description: Insecticidal activity against po dosed Cydia pomonella (codling moth) Clear Creek abandoned neonate measured after 4 days.
Test [19] relates to Cydia pomonella. Description: Resistant ratio of LC50 for fourth-instar larvae of Cydia pomonella (codling moth) lab-s to fourth-instar larvae of Cydia pomonella (codling moth) Glibert.
The subject of test [20] is Cydia pomonella. Briefly: Insecticidal activity against po dosed 15 day-old larvae of Cydia pomonella (codling moth) lab-s reared on apple assessed as mortality measured after 4 days.
The test system of test [21] is Cydia pomonella. Briefly: Insecticidal activity against po dosed fourth-instar larvae of Cydia pomonella (codling moth) Gilbert measured after 4 days.
Test [22] has as its system Cydia pomonella. Briefly: Insecticidal activity against po dosed 10 day-old larvae of Cydia pomonella (codling moth) Gilbert reared on apple assessed as mortality measured after 4 days.
For test [23], the system named is Cydia pomonella. Description: Insecticidal activity against po dosed Cydia pomonella (codling moth) Holt neonate measured after 4 days.

As to `CCO[C@@H]1[C@@H](OC)[C@H](C)O[C@@H](O[C@@H]2C[C@H]3CC[C@@H]4[C@@H](C=C5C(=O)[C@H](C)[C@@H](O[C@H]6CC[C@H](N(C)C)[C@@H](C)O6)CCC[C@H](CC)OC(=O)C[C@H]54)[C@@H]3C2)[C@@H]1OC.CCO[C@@H]1[C@@H](OC)[C@H](C)O[C@@H](O[C@H]2C[C@H]3[C@@H]4C=C5C(=O)[C@H](C)[C@@H](O[C@H]6CC[C@H](N(C)C)[C@@H](C)O6)CCC[C@H](CC)OC(=O)C[C@H]5[C@@H]4C=C(C)[C@@H]3C2)[C@@H]1OC`, the LC50 (in general, the concentration that kills 50% of the test population) with Cydia pomonella [1] came out at 0.16 µg/mL; with Cydia pomonella [2], 0.09 µg/mL.
Turning to `C/C(=N\C#N)N(C)Cc1ccc(Cl)nc1` [ACETAMIPRID], the LC50 in the test with Cydia pomonella [3] amounted to 1.12 µg/mL (≈ 5.03 µM); in the test on Cydia pomonella [4], 0.26 µg/mL (≈ 1.17 µM).
For `CNC(=O)c1cc(Cl)cc(C)c1NC(=O)c1cc(Br)nn1-c1ncccc1Cl` [CHLORANTRANILIPROLE], the LC50 was determined as 0.19 µg/mL (≈ 0.393 µM) in the test on Cydia pomonella [1] and 0.2 µg/mL (≈ 0.414 µM) in the test on Cydia pomonella [2].
Turning to `COc1cccc(C(=O)NN(C(=O)c2cc(C)cc(C)c2)C(C)(C)C)c1C` [METHOXYFENOZIDE], the mortality (in general, the share of the test organisms that died) in the test with Cydia pomonella [5] is given as 99.2%; in the test on Cydia pomonella [6] it was 31.3%; with Cydia pomonella [12] it was 50%; in the test on Cydia pomonella [13], 100%; in the test on Cydia pomonella [14] it was 55.1%; in the test on Cydia pomonella [17] it was 83.3%. The mortality with Cydia pomonella [20] is 98.4%; in the test on Cydia pomonella [22], 93.6%. Moreover, the LC50 in the test on Cydia pomonella [7] is 38.7 µg/mL (≈ 105 µM); in the test with Cydia pomonella [1] it was 2.3 µg/mL (≈ 6.24 µM); in the test on Cydia pomonella [10] it was 9.5 µg/mL (≈ 25.8 µM); in the test on Cydia pomonella [15], 1.35 µg/mL (≈ 3.66 µM); with Cydia pomonella [2], 1.2 µg/mL (≈ 3.26 µM); in the test on Cydia pomonella [18], 95 µg/mL (≈ 258 µM). Further, the LC50 stood at 15.2 µg/mL (≈ 41.3 µM) in the test with Cydia pomonella [21] and 28.5 µg/mL (≈ 77.3 µM) with Cydia pomonella [23]. Further, the LC99 in the test with Cydia pomonella [7] stood at 5061.9 µg/mL; in the test on Cydia pomonella [1], 18.27 µg/mL; in the test on Cydia pomonella [10], 389.4 µg/mL; in the test with Cydia pomonella [15], 28.38 µg/mL; with Cydia pomonella [2] it was 14.15 µg/mL; in the test with Cydia pomonella [18], 14.57 µg/mL. Besides, the LC99 in the test on Cydia pomonella [21] was 202 µg/mL; in the test with Cydia pomonella [23], 5320.8 µg/mL. In addition, the RatioLC50 with Cydia pomonella [8] was found to be 24; in the test on Cydia pomonella [9], 16.7; in the test with Cydia pomonella [11], 8; in the test with Cydia pomonella [19], 6.6. This compound returned an LC95 with Cydia pomonella [16] of 10 µg/mL (≈ 27.1 µM).
Take `O=C(NC(=O)c1c(F)cccc1F)Nc1ccc(OC(F)(F)C(F)OC(F)(F)F)c(Cl)c1` (configuration not stated) [NOVALURON]: the LC50 is 1.16 µg/mL (≈ 2.35 µM) with Cydia pomonella [1] and 1.08 µg/mL (≈ 2.19 µM) in the test on Cydia pomonella [2].
